# In patent US20240043860A1, “NOVEL HYDROXYPHENYLPYRUVATE DIOXYGENASE POLYPEPTIDES AND METHODS OF USE THEREOF” (Syngenta Crop Protection AG, priority 2020, published 2024):
# Values joined by “and” are separate entries in the source; they are usually repeats but may differ in a detail not shown here. Equal entries are not always repeated.
# How the values were obtained:
# wild-type tobacco plants = test: spray test, herbicidal damage scoring; format: in vivo; conditions: Table 4.1, 7 days after treatment, 100=complete death, 0=no damage, one value per plant/event
# Procedure: (§1) Once rooted, plantlets are transferred from agar and potted into 50% peat, 50% John Innes Soil No. 3 or, for example, MetroMix® 380 soil (Sun Gro Horticulture, Bellevue, WA) with slow-release fertilizer in 3 inch round or 4 inch square pots and left regularly watered to establish for 8-12d in the glass house. Glass house conditions are about 24-27° C. day; 18-21° C. night and approximately a 14h (or longer in UK summer) photoperiod.
# (§2) About 20-30 TO events are produced for a number of HPPD variant genes.
# (§3) Tables 4.1-4.9 show the herbicidal damage scoring on transgenic tobacco plants 7 days after treatment. A score of 100=complete death and 0=no damage observed.
# [1] = test system: transgenic tobacco plants expressing mutant HPPD SEQ ID NO: 14; test: spray test, herbicidal damage scoring; format: in vivo; conditions: for tolerance compared to SEQ ID 122 expressing plants: SEQ ID 14 plants, 800 g/ha Mesotrione, 400 g/ha Tembotrione or 400 g/ha Isoxaflutole (Table 3.2)
# Procedure: (§4) Avena sativa HPPD or orthologues and variants thereof, for example SEQ IDs 1-63 and 122-127, were expressed in transgenic tobacco. DNA sequences that encode these polypeptides (optimized for tobacco or, optionally, codon optimized according to a target crop such as soybean) were prepared synthetically. Each sequence was designed to include a 5′ fusion with TMV omega 5′ leader sequence such that they are flanked at the 5′ end with XhoI and at the 3′ end with KpnI to facilitate direct cloning into a suitable binary vector for Agrobacterium-based plant transformation.
# In one example, the TMV omega 5′ leader and a HPPD encoding gene of interest is excised using XhoI/KpnI and cloned into similarly digested binary vector pBIN 19 (Bevan, Nucl. Acids Res. (1984) behind a double enhanced 35S promoter ahead of a NOS 3′ transcription terminator and then transformed into E. coli DH5 alpha competent cells. DNA recovered from the E. coli is used to transform Agrobacterium tumefaciens LBA4404, and transformed bacteria are selected on media contain rifampicin and kanamycin. Tobacco tissue is subjected to Agrobacterium-mediated transformation using methods well described in the art or as described herein. For example, a master plate of Agrobacterium tumefaciens containing the HPPD expressing the binary vector is used to inoculate 10 ml LB (L broth) containing 100 mg/l Rifampicin plus 50 mg/l Kanamycin using a single bacterial colony. This is incubated overnight at 28° C. shaking at 200 rpm. This entire overnight culture is used to inoculate a 50 ml volume of LB containing the same antibiotics. Again this is cultured overnight at 28° C. shaking at 200 rpm. The Agrobacterium cells are pelleted by centrifuging at 3000 rpm for 15 minutes and then resuspended in MS (Murashige and Skoog) medium containing 30 g/l sucrose, pH 5.9 to an OD […]=0.6. This suspension is dispensed in 25 ml aliquots into petri dishes.
# Once rooted, plantlets are transferred from agar and potted into 50% peat, 50% John Innes Soil No. 3 or, for example, MetroMix® 380 soil (Sun Gro Horticulture, Bellevue, WA) with slow-release fertilizer in 3 inch round or 4 inch square pots and left regularly watered to establish for 8-12d in the glass house. Glass house conditions are about 24-27° C. day; 18-21° C. night and approximately a 14h (or longer in UK summer) photoperiod. Humidity is adjusted to ˜65% and light levels used are up to 2000 umol/m^2 at bench level. Once new tissue emerged and plants reach the 2-4 leaf stage, some of the clones from each event are sprayed with an HPPD inhibitor of interest selected from the herbicides listed in reference to Example 1. […] For example Callisto® is mixed in water with 0.2-0.25% X-77 surfactant and sprayed from a boom on a suitable track sprayer moving at 2 mph in a DeVries spray chamber (Hollandale, MN) with the nozzle about 2 inches from the plant tops.
# Plants are assessed for damage and scored at, for example, 7 and 14 days after treatment (DAT). About 20-30 TO events are produced for a number of HPPD variant genes.
# Plants of events showing the least damage are grown to flowering, then bagged and allowed to self. […] Single copy events amongst the Ti plant lines are identified by their 3:1 segregation ratio (with respect to kanamycin and/or herbicide) and by quantitative RT-PCR. Seed from the thus selected Ti tobacco (var. Samsun) lines are sown in 3 inch diameter pots containing 50% peat and 50% John Innes Soil No. 3. After growth to the 3 leaf stage, plants are sprayed as described above in order to test for herbicide tolerance relative to like-treated non-transgenic tobacco plants, and also in comparison with like-treated Ti plants expressing the base HPPD SEQ IDs 122-125. HPPD expression levels were monitored by Western analysis. […]
# [2] = test system: HPPD variant APESV V200 (SEQ ID NO: 6); test: coupled HGO assay; format: biochemical, Apera spica-venti
# Procedure: (§5) DNA sequences (SEQ ID NOs: 65-118, 128, 130, 131, and 133), synthesized for expression in E. coli, by GeneWiz (USA) to encode HPPD variants (SEQ ID NOs: 5-58, 122, 124, 125 and 127) derived from either Avena sativa (SEQ ID NOs: 122, 124), Alopecurus myosuroides (SEQ ID NO: 126) or Apera spica-venti (SEQ ID NOs: 123, 125) were transformed into E coli BL21 (DE3) (New England Biolabs) and grown in 0.5 ml Terrific broth +50 ug/ml Kanamycin media in a 96-deepwell block overnight (37° C., 900rpm). 25 ul of the overnight cultures were inoculated into fresh 96-deepwell block containing 1 ml Formedium Autoinduction Media (AIM). The AIM cultures were grown for 3h at 37° C. (900rpm) and then transferred to 20° C. overnight (900rpm) to allow protein expression. The overnight cultures were centrifuged and 500 ul of Cellytic B (Sigma Aldrich) was added to resuspend the cell pellets. The coupled HGO assay (Siehl et al, 2014) is used to generate IC50 values for the HPPD variants of interest.
# (§6) E. coli BL21 (DE3) cells were transformed with a pET24a vector containing a C-terminally his-tagged Arabidopsis HGO gene, grown and induced overnight as described for the HPPD variants above. The cell pellet was resuspended in phosphate buffered saline at pH 7.4 containing 10% Glycerol, 1mm Tris[2-carboxyethyl] phosphine-HCl (TCEP) plus 30 mM Imidazole and lysed using lysozyme/benzonase. The extract was clarified by low speed centrifugation and purified in the same buffer down a 1 ml His Gravitrap column. The bound HGO was eluted in 0.25M imidazole and the fractions pooled and beaded into liquid nitrogen. All procedures apart from the centrifugation and beading steps were carried out under a nitrogen atmosphere.
# (§7) The coupled HGO assay is carried out by adding 10 ul of HPPD extract to a 96-well plate and then adding 40 ul of reaction buffer (50 mM Bis Tris Propane, pH7.0, 25 mM sodium-L-ascorbate, 400μM mercaptoethanol, 50 μM Fe(II)SO4). The plates are left to incubate for 5 minutes on ice. […] 200 ul of HPP/HGO (197 μM hydroxyphenylpyruvic acid, 16 μl/ml Homogentisic Acid Oxidase in reaction buffer as described above) buffer is then added to the well and the reaction is regularly monitored (e.g. every 30 seconds-5 minutes) for absorbance at 330 nm for a given time period (e.g., for between 15-60 minutes). The data can then be used to calculate the IC50 value for each HPPD variant of interest.
# [3] = test system: HPPD variant APESV V209 (SEQ ID NO: 18); test: coupled HGO assay; format: biochemical, Apera spica-venti
# Procedure: as §5, §6, §7
# [4] = test system: HPPD variant ALOME V162 (SEQ ID NO: 126); test: coupled HGO assay; format: biochemical, Alopecurus myosuroides
# Procedure: as §5, §6, §7
# [5] = test system: HPPD variant ALOME V200 (SEQ ID NO: 7); test: coupled HGO assay; format: biochemical, Alopecurus myosuroides
# Procedure: as §5, §6, §7
# [6] = test system: HPPD variant ALOME V209 (SEQ ID NO: 19); test: coupled HGO assay; format: biochemical, Alopecurus myosuroides
# Procedure: as §5, §6, §7
# [7] = test system: transgenic tobacco plants expressing mutant HPPD SEQ ID NO: 122; test: spray test, herbicidal damage scoring; format: in vivo; conditions: Table 3.2; 14 days after treatment; best events, SEQ ID 122; 100=complete death, 0=no damage; one value per event
# [8] = test system: transgenic tobacco plants expressing mutant HPPD SEQ ID NO: 122; test: spray test, herbicidal damage scoring; format: in vivo; conditions: Table 4.4; 7 days after treatment; SEQ ID NO: 122; 100=complete death, 0=no damage; one value per event
# Procedure: as §4, with “DNA” for “Avena sativa HPPD or orthologues and variants thereof, for example SEQ IDs 1-63 and 122-127, were expressed in transgenic tobacco. DNA”
# (§8) For example, a master plate of Agrobacterium tumefaciens containing the HPPD expressing the binary vector is used to inoculate 10 ml LB (L broth) containing 100 mg/l Rifampicin plus 50 mg/l Kanamycin using a single bacterial colony. This is incubated overnight at 28° C. shaking at 200 rpm. This entire overnight culture is used to inoculate a 50 ml volume of LB containing the same antibiotics. Again this is cultured overnight at 28° C. shaking at 200 rpm. The Agrobacterium cells are pelleted by centrifuging at 3000 rpm for 15 minutes and then resuspended in MS (Murashige and Skoog) medium containing 30 g/l sucrose, pH 5.9 to an OD […]=0.6. This suspension is dispensed in 25 ml aliquots into petri dishes.
# as §1, §2
# (§9) Single copy events amongst the Ti plant lines are identified by their 3:1 segregation ratio (with respect to kanamycin and/or herbicide) and by quantitative RT-PCR. Seed from the thus selected Ti tobacco (var. Samsun) lines are sown in 3 inch diameter pots containing 50% peat and 50% John Innes Soil No. 3. […] HPPD expression levels were monitored by Western analysis.
# as §3
# [9] = test system: transgenic tobacco plants expressing mutant HPPD SEQ ID NO: 124; test: spray test, herbicidal damage scoring; format: in vivo; conditions: Table 4.2, 7 days after treatment, 100=complete death, 0=no damage, one value per event
# Procedure: as §4, with “DNA” for “Avena sativa HPPD or orthologues and variants thereof, for example SEQ IDs 1-63 and 122-127, were expressed in transgenic tobacco. DNA”
# as §8, §1, §2, §9, §3
# [10] = test system: transgenic tobacco plants expressing mutant HPPD SEQ ID NO: 125; test: spray test, herbicidal damage scoring; format: in vivo; conditions: Table 4.3, 7 days after treatment, 100=complete death, 0=no damage, one value per event
# Procedure: as §4, with “DNA” for “Avena sativa HPPD or orthologues and variants thereof, for example SEQ IDs 1-63 and 122-127, were expressed in transgenic tobacco. DNA”
# as §8, §1, §2, §9, §3
compound,measurement,setting,value
"CS(=O)(=O)c1cc(C(F)(F)F)ccc1C(=O)c1cnoc1C1CC1 [Isoxaflutole, isoxaflutole]","herbicidal damage scoring, Isoxaflutole (400 gai/ha)",wild-type tobacco plants,95 and 97 and 96
same,tolerance compared to SEQ ID 122 expressing plants,[1],equally tolerant
"CS(=O)(=O)c1ccc(C(=O)C2C(=O)CCCC2=O)c([N+](=O)[O-])c1 [Mesotrione, mesotrione]",IC50,[2],32.2 µM
same,IC50,[3],44.8 µM
same,IC50,[4],12.8 µM
same,IC50,[5],31.9 µM
same,IC50,[6],31.9 µM
same,tolerance compared to SEQ ID 122 expressing plants,[1],equally tolerant
"CS(=O)(=O)c1ccc(C(=O)C2C(=O)CCCC2=O)c(Cl)c1COCC(F)(F)F [Tembotrione, tembotrione]","herbicidal damage scoring, Tembotrione (400 gai/ha)",wild-type tobacco plants,97 and 95 and 98
same,tolerance compared to SEQ ID 122 expressing plants,[1],increased tolerance
same,"herbicidal damage scoring, Tembotrione (400 gai/ha)","[1]; Table 3.2, 14 days after treatment, best events, SEQ ID 14, 100=complete death, 0=no damage, one value per event",25 and 30
same,"herbicidal damage scoring, Tembotrione (400 gai/ha)",[7],45 and 50 and 55 and 65 and 40
"Cc1c(C(=O)c2cnn(C)c2O)ccc(S(C)(=O)=O)c1C1=NOCC1 [Topramezone, topramezone]","herbicidal damage scoring, Topramezone (100 g/ha)",wild-type tobacco plants,98 and 97 and 99 and 95
same,"herbicidal damage scoring, Topramezone (100 g/ha)",[8],0
same,"herbicidal damage scoring, Topramezone (100 g/ha)",[9],0
same,"herbicidal damage scoring, Topramezone (100 g/ha)",[10],0
